From patent US20250263404A1, “AMINOPYRIDINES AS ACTIVATORS OF PI3 KINASE” (UCL Business Ltd, priority 2021, published 2025) come the findings set out here.

The target in assay [1] is T1, mTORC1 (mTOR/RAPTOR/LST8 complex) (Homo sapiens, UniProt P42345).
T1 construct: made in house
The experiment in a line: mTORC1 kinase assay (Phos-tag gel). The note with it: 200 μM 1938. The class given is biochemical. Here is the method: (§1) 133 protein kinases and 7 lipid kinases were counterscreened, with […] used at 1 μM, using the Adapta, Lantha and Z-LYTE assays (SelectScreen Kinase Profiling Service; Thermofisher—experimental details of these assays can be found here: https://www.thermofisher.com/uk/en/home/industrial/pharma-biopharma/drug-discovery-development/target-and-lead-identification-and-validation/kinasebiology/kinase-activity-assays.html. The tree representation in KinMap generated courtesy of Cell Signaling Technology, Inc. (www.cellsignal.com). mTORC1 (mTOR/RAPTOR/LST8) protein complex and ATM kinase and substrates were produced as previously described (Anandapadamanaban, M. et al. Science (New York, NY 366, 203-210 (2019); Baretic, D. et al. Sci Adv 3, e1700933 (2017). Screening of 1938 was conducted using SuperSep Phos-Tag 50 μmol/l 100×100×6.6 mm 17-well (192-18001/199-18011) gels. For ATM assays, 100 nM ATM was incubated for 30 min at 30° C. with 5 μM GST-p53 and 1 mM ATP, in the absence or presence of 200 μM 1938 in ATM Kinase Buffer (50 mM HEPES pH 7.5, 100 mM NaCl, 10% glycerol, 2 mM […], 5 mM MgCl2). […] Gels were then stained using InstantBlue™ Coomassie stain, and then quantified using BioRad Image Lab Software. […]

The test system of assay [2] is exposed rat sciatic nerves. The experiment in a line: pAKT induction in exposed rat sciatic nerves. The format is in vivo. As to conditions: direct injection or bathing, 5 μM. Here is the method:
Stimulated by these observations, we next tested 1938 in the sciatic nerve crush model in the rat, an in vivo model of peripheral nerve injury and regeneration. […] Immediately after the nerve crush (FIG. 5e, i-ii), 1938 was delivered via a single intraneural injection into the proximal crush site (FIG. 5e, iii) and via a minipump implanted adjacent to the nerve (FIG. 5e, iv), loaded with 1938 solution, for continuous delivery for the duration of the experiment. Analyses were conducted 3 weeks after injury.
Test experiment to assess if 1938 could induce pAkt generation in exposed rat sciatic nerves, adult male Sprague Dawley rats (>250 g; n=2) were anaesthetised using isoflurane, the left leg sciatic nerve was exposed and injected with 2 μl vehicle (sterile dH2O) or 1938 (5 μM in sterile dH2O). Meanwhile the sciatic nerve of the right leg was exposed and bathed in 250 μl of vehicle (sterile dH2O) or 1938 (5 μM in sterile dH2O). Each animal received one vehicle and one compound treatment. The treatments were left on for 30 min prior to washing the bathed nerves with sterile PBS and culling via sodium pentobarbital injection according to local regulations, the animal by schedule 1. Nerves were then harvested, washed in fresh 4° C. PBS and stored in a fresh vial before snap freezing in liquid nitrogen. […]

The next assay has as its target BRK (Homo sapiens, UniProt Q13882). As to the kind of experiment: SelectScreen kinase profiling, BRK. The class given is biochemical. The note with it: 1 μM of 1938, 75 μM ATP. The procedure:
as §1

BRK, sequence (Q13882 whole entry): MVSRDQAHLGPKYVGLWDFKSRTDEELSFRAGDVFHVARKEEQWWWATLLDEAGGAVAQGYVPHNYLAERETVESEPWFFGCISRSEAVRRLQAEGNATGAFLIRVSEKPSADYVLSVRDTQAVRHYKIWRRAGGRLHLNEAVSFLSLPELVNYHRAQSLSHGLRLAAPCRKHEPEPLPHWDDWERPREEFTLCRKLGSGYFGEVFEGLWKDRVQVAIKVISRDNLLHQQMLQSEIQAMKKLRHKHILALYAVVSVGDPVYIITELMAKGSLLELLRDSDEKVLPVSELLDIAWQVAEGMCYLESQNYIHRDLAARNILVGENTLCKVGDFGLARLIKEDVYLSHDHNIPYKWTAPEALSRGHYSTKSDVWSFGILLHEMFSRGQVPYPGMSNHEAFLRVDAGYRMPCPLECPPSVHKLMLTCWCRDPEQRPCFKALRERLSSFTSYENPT

Turning to `CCN1CCN(c2ccc(Nc3cc(Nc4cccc5c4N(C(C)=O)CC5)ccn3)cc2)CC1` [Example 1938], the “activity of mTORC1” value in assay [1] is “did not affect”. For the same molecule, the “pAKT in sciatic nerve” value in assay [2] is “induction of pAKT”. For the same molecule, the “inhibition of BRK” value against BRK was 56%.
